Measured values published in ChEMBL document CHEMBL3400115, “Chemical constituents from Kandelia candel with their inhibitory effects on pro-inflammatory cytokines production in LPS-stimulated bone marrow-derived dendritic cells (BMDCs)” (Bioorg Med Chem Lett, 2015).

What was measured:
Type in all cases: functional
[1] = Inhibition of LPS-induced IL-6 production in wild-type C57BL/6 mouse BMDC pretreated with compound for 1 hr before LPS treatment measured 16 hrs by ELISA
[2] = Inhibition of LPS-induced TNF-alpha production in wild-type C57BL/6 mouse BMDC pretreated with compound for 1 hr before LPS treatment measured 16 hrs by ELISA
[3] = Inhibition of LPS-induced IL-12 p40 production in wild-type C57BL/6 mouse BMDC pretreated with compound for 1 hr before LPS treatment measured 16 hrs by ELISA

Row | IC50 [1] [µM] | IC50 [2] [µM] | IC50 [3] [µM] | Structure (SMILES)
1 | > 50 | > 50 | > 50 | O=C(O)c1ccc(O)c(O)c1 [PROTOCATECHUIC ACID]
2 | > 50 | > 50 | > 50 | COc1cc([C@@H](O)[C@@H](O)CO)cc(OC)c1O (relative stereo)
3 | > 50 | > 50 | > 50 | CC1=CC(=O)CC(C)(C)[C@H]1CC[C@H](C)O[C@@H]1O[C@H](CO)[C@@H](O)[C@H](O)[C@H]1O
4 | > 50 | > 50 | > 50 | O=c1c(O[C@@H]2O[C@H](CO)[C@@H](O)[C@H](O)[C@H]2O)c(-c2ccc(O)c(O)c2)oc2cc(O)cc(O)c12 [ISOQUERCETIN]
5 | > 50 | > 50 | > 50 | C[C@@H]1O[C@@H](Oc2c(-c3ccc(O)cc3)oc3cc(O)cc(O)c3c2=O)[C@H](O)[C@H](O)[C@H]1O [AFZELIN]
6 | > 50 | > 50 | > 50 | COc1cc(-c2oc3cc(O)cc(O)c3c(=O)c2O[C@@H]2O[C@H](CO)[C@@H](O)[C@H](O)[C@H]2O)ccc1O
7 | > 50 | > 50 | > 50 | Oc1cc(O)c2c(c1)O[C@H](c1ccc(O)c(O)c1)[C@H](O)C2 [(-)-EPICATECHIN]
8 | > 50 | > 50 | > 50 | COc1cc(-c2oc3cc(O)cc(O)c3c(=O)c2O[C@@H]2O[C@H](CO[C@@H]3O[C@@H](C)[C@H](O)[C@@H](O)[C@H]3O)[C@@H](O)[C@H](O)[C@H]2O)ccc1O [NARCISSIN]
9 | 0.07 | 49.9 | > 50 | CC1=CC(=O)CC(C)(C)[C@@]1(O)/C=C/[C@H](C)O[C@@H]1O[C@H](CO)[C@@H](O)[C@H](O)[C@H]1O [6S,9S-ROSEOSIDE]
10 | > 50 | > 50 | > 50 | O=C(O)/C=C/c1ccc(O)c(O)c1 [CAFFEIC ACID]
11 | > 50 | > 50 | > 50 | C[C@@H]1O[C@@H](OC[C@H]2O[C@@H](Oc3c(-c4ccc(O)c(O)c4)oc4cc(O)cc(O)c4c3=O)[C@H](O)[C@@H](O)[C@@H]2O)[C@H](O)[C@H](O)[C@H]1O [RUTIN]
12 | > 50 | > 50 | > 50 | Oc1cc(O)c2c(c1)O[C@H](c1ccc(O)c(O)c1)[C@@H](O)C2 [CIANIDANOL]
13 | > 50 | > 50 | > 50 | CC1=C(CC[C@H](C)O)C(C)(C)C[C@H](O[C@@H]2O[C@H](CO)[C@@H](O)[C@H](O)[C@H]2O)C1
14 | > 50 | > 50 | > 50 | CC(C)(O)[C@H]1CC[C@@]2(C)[C@@H]3C[C@@H](O[C@@H]4O[C@H](CO)[C@@H](O)[C@H](O)[C@H]4O)[C@]2(C)[C@H](O)C31
15 | > 50 | 28.7 | > 50 | COc1cc([C@@H](O)[C@H](O)CO)cc(OC)c1O (relative stereo)
16 | > 50 | > 50 | > 50 | COc1cc([C@H]2OC[C@H]3[C@@H]2CO[C@@H]3c2cc(OC)c(O[C@@H]3O[C@H](CO)[C@@H](O)[C@H](O)[C@H]3O)c(OC)c2)cc(OC)c1O
17 | > 50 | > 50 | > 50 | O=C(/C=C/c1ccc(O)c(O)c1)O[C@@H]1C[C@](O)(C(=O)O)C[C@@H](O)[C@H]1O [CHLOROGENIC ACID]
